Literature values in patent US20230312573A1, “NOVEL SALTS, CRYSTALS, AND CO-CRYSTALS” (INTRA-CELLULAR THERAPIES, INC., priority 2021, published 2023).

Experiments:
5-HT2C receptor = biological target: T1, 5-HT2C receptor (Homo sapiens, UniProt P28335)
T1 sequence (P28335 33-458): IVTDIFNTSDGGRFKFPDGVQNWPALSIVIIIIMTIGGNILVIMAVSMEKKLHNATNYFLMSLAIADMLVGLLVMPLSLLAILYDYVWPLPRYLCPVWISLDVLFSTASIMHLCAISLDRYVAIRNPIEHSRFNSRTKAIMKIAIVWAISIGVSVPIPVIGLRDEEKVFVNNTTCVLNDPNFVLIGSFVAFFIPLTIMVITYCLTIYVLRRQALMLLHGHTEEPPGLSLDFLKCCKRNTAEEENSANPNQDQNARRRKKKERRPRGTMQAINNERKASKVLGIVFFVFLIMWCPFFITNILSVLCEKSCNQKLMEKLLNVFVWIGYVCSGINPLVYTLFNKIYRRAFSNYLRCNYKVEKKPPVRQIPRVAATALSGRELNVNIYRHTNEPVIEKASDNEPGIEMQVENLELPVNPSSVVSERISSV

[1] = biological target: H1 histaminergic receptor (Homo sapiens, UniProt P35367)
Sequence of H1 histaminergic receptor (P35367 whole entry): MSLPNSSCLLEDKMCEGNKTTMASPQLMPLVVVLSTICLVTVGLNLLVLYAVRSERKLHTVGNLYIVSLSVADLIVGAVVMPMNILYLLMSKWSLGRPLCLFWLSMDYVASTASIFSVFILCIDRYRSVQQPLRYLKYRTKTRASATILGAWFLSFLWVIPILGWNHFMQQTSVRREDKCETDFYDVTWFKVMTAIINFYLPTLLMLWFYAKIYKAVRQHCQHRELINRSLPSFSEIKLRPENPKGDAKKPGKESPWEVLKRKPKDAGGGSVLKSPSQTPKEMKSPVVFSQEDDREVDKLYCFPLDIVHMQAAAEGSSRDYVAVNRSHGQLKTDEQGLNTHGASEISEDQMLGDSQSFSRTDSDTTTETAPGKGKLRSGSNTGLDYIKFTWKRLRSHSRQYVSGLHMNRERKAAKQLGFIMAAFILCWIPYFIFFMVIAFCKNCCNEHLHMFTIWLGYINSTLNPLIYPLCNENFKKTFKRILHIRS

CN1CCN2c3c(cccc31)[C@@H]1CN(CCCC(=O)c3ccc(F)cc3)CC[C@@H]12 [Lumateperone, 1-(4-fluoro-phenyl)-4-((6bR,10aS)-3-methyl-2,3,6b,9,10,10a-hexahydro-1H,7H-pyrido[3′,4′:4,5]pyrrolo[1,2,3-de]quinoxalin-8-yl)-butan-1-one]
negligible binding: binding to muscarinic receptors (muscarinic receptor) | binding to 5-HT2C receptors (5-HT2C receptor) | binding to H1 histaminergic receptors [1]
